Like-named read-outs stand apart in the source and are kept apart here.
Legend:
[1] = system: human foreskin fibroblast (HFF); assay: Cytotoxicity by cell proliferation, HFF cells; assay type: cell-based; details: read-out: IC50 for indicated cell line HFF
Procedure: (§1) The cytotoxicity of the novel trans-platinum compounds was assayed through the standard protocols of the NCI Developmental Therapeutics (HIV) and NIAID (Herpes Viruses) Screening Programs.
(§2) http://www.niaid.nih.gov/dmid/apdsame.html. IC50 is cytotoxic dose in cell carriers.
(§3) The cytotoxicity of several nucleobase compounds of the general formula SP-4-2-[PtX(L)(L′)(B)]^+ was assessed and the results are given in Table I. The cell lines employed were human foreskin fibroblast (HFF), Daudi, and CEM-SS, a T-cell line typically used to csrry snd maintain human imnmunodefficiency virus (HIV). The lC50 values for HFF and Dsudi cell lines were determined by cell proliferation as referenced above. The IC50 values for the CEM-SS cell line was determined by XTT colorimetric assays as referenced above.

Daudi = assay: Cytotoxicity by cell proliferation, Daudi cells; assay type: cell-based; details: read-out: IC50 for indicated cell line Daudi
Procedure: as §1, §2, §3

L1210 Leukemia [2] = details: for in vivo antitumor activity: murine L1210 leukemia
Source text: b: %T/C is % average survival in days of treated animals/average survival in days of control animals. All tests performed as reported in references in a above. 50×3 refers to dose (mg/kg) and schedule (drug injection at 1,5,9 days after tumor inoculation).

A 2780 = A 2780 cells
CEM-SS, a T-cell line = assay: Cytotoxicity by XTT colorimetric assay, CEM-SS cells; assay type: cell-based; details: read-out: IC50 for indicated cell line CEM-SS
Procedure: as §1, §2, §3

[3] = Water-solubility compared with the parent compound; assay type: physicochemical; details: statement in words, no values
L1210 Leukemia [4] = details: murine L1210 leukemia; J. Med. Chem. 32:2240; cited from earlier work

Compound | IC50 [1] [µM] | IC50 (Daudi) [µM] | IC50 (CEM-SS, a T-cell line; first CEM-SS column) [µM] | IC50 (CEM-SS, a T-cell line; second CEM-SS column) [µM] | further results
CCn1c[n+]([Pt-2]([NH2])([NH3+])[Cl])c2c(=O)[nH]c(N)nc21 (stereo not drawn) [Compound 1, trans-[PtCl(9-ethylguanine)(NH3)2]^+] | 18.9 | 7.9 |  |  | 
CCn1c[n+]([Pt-2]([NH2])([Cl])[n+]2ccc3ccccc3c2)c2c(=O)[nH]c(N)nc21 (centres unmarked) [Compound 5, SP-4-2-[PtCl(9-ethylguanine)(NH3)(isoquinoline)]^+] | 2.8 | 4.8 |  |  | 
trans-[PtCl(Me2SO)(pyridine)2]^+ |  |  |  |  | L1210 Leukemia % T/C (L1210 Leukemia [2]; 50 × 3: 50 mg/kg, injection at 1,5,9 days after tumor inoculation, T/C >150% indicative of activity): 155 (50 × 3) %; in vivo antitumor activity (L1210 Leukemia [2]): some antitumor activity; A 2780 IC50 (A 2780): 0.3 µg/mL
Cn1ccc(N)[n+]([Pt-2]([NH2])([Cl])[n+]2cccc3ccccc32)c1=O (centres unmarked) [Compound 9, SP-4-2-[PtCl(1-methylcytosine)(NH3)(quinoline)]^+] | 38.7 | 14.1 | 50.4 | 33.2 | 
CCn1c[n+]([Pt-2]([NH2])([Cl])[n+]2ccsc2)c2c(=O)[nH]c(N)nc21 (centres unmarked) [Compound 2, SP-4-2-[PtCl(9-ethylguanine)(NH3)(thiazole)]^+] | 11.2 | 18.1 | 47.3 | 24.6 | 
CCn1c[n+]([Pt-2]([Cl])([n+]2ccc(C)cc2)[n+]2ccc(C)cc2)c2c(=O)[nH]c(N)nc21 [Compound 6, trans-[PtCl(9-ethylguanine) (4-picoline)2]^+] | 21.7 | 0.92 | 1.9 | 2 | water-solubility and bioavailability versus parent trans-[PtCl2(4-pic)2] [3]: significant water-solubility and bioavailability over the parent compound
trans-[PtCl(1-methylcytosine)(NH3)2]^+ [Compound 7] | > 45.2 | 15 |  |  | 
CCn1c[n+]([Pt-2]([NH2])([Cl])[n+]2cccc3ccccc32)c2c(=O)[nH]c(N)nc21 (centres unmarked) [Compound 4] | 25.9 | 0.93 | 47.4 | 31.7 | 
SP-4-2-[PtCl(9-ethylguanine) (NH3)(benzothiazole)]^+ [Compound 3] | 11.2 | 9.8 |  |  | 
SP-4-2-[PtCl(1-methylcytosine)(NH3)(thiazole)] [Compound 8] | > 52 |  |  |  | 
[Cl][Pt][Cl].c1ccncc1.c1ccncc1 [trans-[PtCl2(pyridine)2], reference compound] |  |  |  |  | L1210 Leukemia % T/C (L1210 Leukemia [2]; 50 × 2: 50 mg/kg, injected twice only): 106 (50 × 2) %; in vivo antitumor activity (L1210 Leukemia [2]): no activity; in vivo antitumor activity, previously reported (L1210 Leukemia [4]): totally inactive; A 2780 IC50 (A 2780): 0.2 µg/mL
Cn1ccc(N)[n+]([Pt-2]([NH2])([Cl])[n+]2ccc3ccccc3c2)c1=O (centres unmarked) [Compound 10, SP-4-2-[PtCl(1-methylcytosine)(NH3)(isoquinoline)]^+] | > 56.4 | 21.6 |  |  | 
